Test results from patent publication US20240252488A1 (KOREA RESEARCH INSTITUTE OF CHEMICAL TECHNOLOGY, priority 2020, published 2024).

Tests used:
MLKL [1] = molecular target: T1, MLKL (Homo sapiens, UniProt Q8NB16); assay: Measurement of binding affinity with MLKL receptor (competitive binding assay, Kd); parameters: made in house; host or cells: HEK 293 cell line (T7 phage in E. coli BL21-derived host is also described)
T1 sequence (Q8NB16 1-471): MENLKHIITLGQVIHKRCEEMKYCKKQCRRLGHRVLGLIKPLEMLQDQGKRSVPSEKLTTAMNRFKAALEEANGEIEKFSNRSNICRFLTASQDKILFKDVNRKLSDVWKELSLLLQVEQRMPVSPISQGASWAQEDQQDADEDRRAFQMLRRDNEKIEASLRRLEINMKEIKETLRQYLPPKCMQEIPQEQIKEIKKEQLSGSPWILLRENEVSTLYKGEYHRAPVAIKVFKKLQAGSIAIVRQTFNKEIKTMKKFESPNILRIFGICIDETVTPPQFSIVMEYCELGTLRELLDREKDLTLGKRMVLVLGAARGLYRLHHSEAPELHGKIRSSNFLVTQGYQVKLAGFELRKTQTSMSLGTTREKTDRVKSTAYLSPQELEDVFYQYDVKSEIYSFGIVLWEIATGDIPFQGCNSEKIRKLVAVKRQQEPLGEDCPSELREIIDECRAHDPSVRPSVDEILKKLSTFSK
How it was run: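 Kd comes from a bead-based competition format: compound-dependent loss of DNA-tagged, HEK 293-expressed MLKL capture, measured as eluate kinase by qPCR. Final DMSO is 0.9%.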

MLKL [2] = molecular target: T1, MLKL; assay: MLKL degradation assay in HepG2 cell line (western blot); format: cell-based; parameters: endogenous in cells; host or cells: HepG2 or HaCaT; conditions: cell line not given; for Degradation assay (Degradation %) 1 μM: compound 1 μM; for Degradation assay (Degradation %) 10 μM: compound 10 μM
How it was run: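 HepG2, cpd final 1 or 10 μM, 20-24 h, 37 °C/5% CO2; RIPA lysis, BCA-normalized, 10-15 μg/lane SDS-PAGE, western blot, ECL read-out.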

FADD−/− Jurkat cells = assay: Necroptosis inhibition assay, TNF-α-induced necroptosis (CellTiter-Glo 2.0); format: cell-based, human; conditions: TNF-α 15 ng/mL; for Necroptosis inhibition assay (Rescue %) 1 μM: compound 1 μM; for Necroptosis inhibition assay (Rescue %) 10 μM: compound 10 μM
How it was run: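 Cmpd 0.1/1/10 μM final, 30 min RT preincubation; TNF-α 15 ng/mL final; 20–24 h, 37° C, 5% CO2. Readout: ATP luminescence (reagent 1:3 in PBS), 0.5 s/well. Cytotoxicity and % necroptosis inhibition calculated from signal.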

| SMILES | Kd (MLKL [1]) | Degradation assay (Degradation %) 1 μM (MLKL [2]) | Degradation assay (Degradation %) 10 μM (MLKL [2]) | Necroptosis inhibition assay (Rescue %) 1 μM (FADD−/− Jurkat cells) | Necroptosis inhibition assay (Rescue %) 10 μM (FADD−/− Jurkat cells) |
| --- | --- | --- | --- | --- | --- |
| Nc1ncc(-c2cnn(C3CCN(CC4CCN(C(=O)COc5cccc6c5C(=O)N(C5CCC(=O)NC5=O)C6=O)CC4)CC3)c2)nc1C(=O)O[C@@H](C(=O)Nc1ccc(F)cc1)c1ccccc1 (stereo partly drawn) [TDH-148, (R)-2-((4-fluorophenyl)amino)-2-oxo-1-phenylethyl 3-amino-6-(1-(1-((1-(2-((2-(2,6-dioxopiperidin-3-yl)-1,3-dioxoisoindolin-4-yl)oxy)acetyl)piperidin-4-yl)methyl)piperidin-4-yl)-1H-pyrazol-4-yl)pyrazine-2-carboxylate] | 1.4 nM | 46.29% | 48.24% | 54.25% | 15.48% |
| Nc1ncc(-c2cnn(C3CCN(CC4CCN(c5cccc6c5C(=O)N(C5CCC(=O)NC5=O)C6=O)CC4)CC3)c2)nc1C(=O)O[C@@H](C(=O)Nc1ccc(F)cc1)c1ccccc1 (stereo partly drawn) [TDH-149, (R)-2-((4-fluorophenyl)amino)-2-oxo-1-phenylethyl 3-amino-6-(1-(1-((1-(2-(2,6-dioxopiperidin-3-yl)-1,3-dioxoisoindolin-4-yl)piperidin-4-yl)methyl)piperidin-4-yl)-1H-pyrazol-4-yl)pyrazine-2-carboxylate] | 40 nM | 48.51% | 77.36% | 82.1% | 55.19% |
| Nc1ncc(-c2cnn(C3CCN(CC4CCN(c5ccc6c(c5)C(=O)N(C5CCC(=O)NC5=O)C6=O)CC4)CC3)c2)nc1C(=O)O[C@@H](C(=O)Nc1ccc(F)cc1)c1ccccc1 (stereo partly drawn) [TDH-150, (R)-2-((4-fluorophenyl)amino)-2-oxo-1-phenylethyl 3-amino-6-(1-(1-((1-(2-(2,6-dioxopiperidin-3-yl)-1,3-dioxoisoindolin-5-yl)piperidin-4-yl)methyl)piperidin-4-yl)-1H-pyrazol-4-yl)pyrazine-2-carboxylate] | 43 nM | 66.97% | 53.7% | 53.91% | 39.57% |
| Nc1ncc(-c2cnn(C3CCN(CC4CCN(C(=O)C5CCN(c6ccc7nnn(C8CCC(=O)NC8=O)c(=O)c7c6)CC5)CC4)CC3)c2)nc1C(=O)O[C@@H](C(=O)Nc1ccc(F)cc1)c1ccccc1 (stereo partly drawn) [TDH-151, (R)-2-((4-fluorophenyl)amino)-2-oxo-1-phenylethyl 3-amino-6-(1-(1-((1-(1-(3-(2,6-dioxopiperidin-3-yl)-4-oxo-3,4-dihydrobenzo[d][1,2,3]triazin-6-yl)piperidine-4-carbonyl)piperidin-4-yl)methyl)piperidin-4-yl)-1H-pyrazol-4-yl)pyrazine-2-carboxylate] | 12 nM | 84.58% | 77.74% | 85.85% | 60.12% |
| Nc1ncc(-c2cnn(C3CCN(CC4CCN(C(=O)CNc5ccc6nnn(C7CCC(=O)NC7=O)c(=O)c6c5)CC4)CC3)c2)nc1C(=O)O[C@@H](C(=O)Nc1ccc(F)cc1)c1ccccc1 (stereo partly drawn) [TDH-152, (R)-2-((4-fluorophenyl)amino)-2-oxo-1-phenylethyl 3-amino-6-(1-(1-((1-((3-(2,6-dioxopiperidin-3-yl)-4-oxo-3,4-dihydrobenzo[d][1,2,3]triazin-6-yl)glycyl)piperidin-4-yl)methyl)piperidin-4-yl)-1H-pyrazol-4-yl)pyrazine-2-carboxylate] | 2.7 nM | 51.96% | 35.05% | 63.2% | 41.21% |
| Nc1ncc(-c2cnn(C3CCN(CCOCCOCCOCCNc4cccc5c4C(=O)N(C4CCC(=O)NC4=O)C5=O)CC3)c2)nc1C(=O)O[C@@H](C(=O)Nc1ccc(F)cc1)c1ccccc1 (stereo partly drawn) [TDH-153, (R)-2-((4-fluorophenyl)amino)-2-oxo-1-phenylethyl 3-amino-6-(1-(1-(2-(2-(2-(2-((2-(2,6-dioxopiperidin-3-yl)-1,3-dioxoisoindolin-4-yl)amino)ethoxy)ethoxy)ethoxy)ethyl)piperidin-4-yl)-1H-pyrazol-4-yl)pyrazine-2-carboxylate] | 9.2 nM | 37.66% | 24.63% | 37.21% | 16.52% |
| Nc1ncc(-c2cnn(C3CCN(CCOCCOCCOCCNc4ccc5c(c4)C(=O)N(C4CCC(=O)NC4=O)C5=O)CC3)c2)nc1C(=O)O[C@@H](C(=O)Nc1ccc(F)cc1)c1ccccc1 (stereo partly drawn) [TDH-154, (R)-2-((4-fluorophenyl)amino)-2-oxo-1-phenylethyl 3-amino-6-(1-(1-(2-(2-(2-(2-((2-(2,6-dioxopiperidin-3-yl)-1,3-dioxoisoindolin-5-yl)amino)ethoxy)ethoxy)ethoxy)ethyl)piperidin-4-yl)-1H-pyrazol-4-yl)pyrazine-2-carboxylate] | 3.8 nM | 25.56% | 28.19% | 37.01% | 23.23% |
| Nc1ncc(-c2cnn(C3CCN(CCOCCOCCOCCNC(=O)COc4cccc5c4C(=O)N(C4CCC(=O)NC4=O)C5=O)CC3)c2)nc1C(=O)O[C@@H](C(=O)Nc1ccc(F)cc1)c1ccccc1 (stereo partly drawn) [TDH-155, (R)-2-((4-fluorophenyl)amino)-2-oxo-1-phenylethyl 3-amino-6-(1-(1-(1-((2-(2,6-dioxopiperidin-3-yl)-1,3-dioxoisoindolin-4-yl)oxy)-2-oxo-6,9,12-trioxa-3-azatetradecan-14-yl)piperidin-4-yl)-1H-pyrazol-4-yl)pyrazine-2-carboxylate] | 9.5 nM | 31.35% | 63.85% | 31.1% | 64.6% |
| Nc1ncc(-c2cnn(C3CCN(CCCCCCCCCCNC(=O)C4CCN(c5cccc6c5C(=O)N(C5CCC(=O)NC5=O)C6=O)CC4)CC3)c2)nc1C(=O)O[C@@H](C(=O)Nc1ccc(F)cc1)c1ccccc1 (stereo partly drawn) [TDH-156, (R)-2-((4-fluorophenyl)amino)-2-oxo-1-phenylethyl 3-amino-6-(1-(1-(10-(1-(2-(2,6-dioxopiperidin-3-yl)-1,3-dioxoisoindolin-4-yl)piperidine-4-carboxamido)decyl)piperidin-4-yl)-1H-pyrazol-4-yl)pyrazine-2-carboxylate] | 53 nM | 31.35% | 18.75% | 19.9% | 21.77% |
| Nc1ncc(-c2cnn(C3CCN(CCCCCCCCCCNC(=O)C4CCN(c5ccc6c(c5)C(=O)N(C5CCC(=O)NC5=O)C6=O)CC4)CC3)c2)nc1C(=O)O[C@@H](C(=O)Nc1ccc(F)cc1)c1ccccc1 (stereo partly drawn) [TDH-157, (R)-2-((4-fluorophenyl)amino)-2-oxo-1-phenylethyl 3-amino-6-(1-(1-(10-(1-(2-(2,6-dioxopiperidin-3-yl)-1,3-dioxoisoindolin-5-yl)piperidine-4-carboxamido)decyl)piperidin-4-yl)-1H-pyrazol-4-yl)pyrazine-2-carboxylate] | 47 nM | 62.45% | 64.73% | 37.7% | 45.37% |
